One block for each compound: values may come before it.
What was measured:
TPA-induced MPO activity [1] = conditions: mouse, in vivo
Method: These included dexamethasone, a steroid, and indomethasone, a non-steroid anti-inflammatory drug, which targets cycloxygenases. The action of AFC in this model was, therefore, compared to that of dexamethasone and indomethasone. Each of these agents were tested using the same protocols used to test AFC.

mouse ear [2] = experiment: AFC in acetone alone, mouse ear edema (irritancy test); type: in vivo; conditions: topical, dose up to about 32 mg/20 μl, 5.5 hours
Method: Each contralateral ear was treated with only acetone in the same manner. The mice then were returned to their cages. After 5.5 hours, mice were sacrificed and 6 mm punches were taken from each ear and weighed. Edema response was expressed as the percent increase in the treated ear's weight over the untreated (acetone, vehicle only) ear.

TPA-induced edema = experiment: TPA-induced edema, murine ear acute contact irritation model; type: in vivo, mouse; conditions: 2 μg TPA in 20 μl acetone; AFC in acetone 15 min later; 5.5 hours
Source text: (See Carlson, R. P., et al., Modulation of mouse ear edema by cyclooxygenase and lipoxygenase inhibitors and other pharmacologic agents. Agents Actions, 1985. 17(2): 197-204; Kuehl, F. A., Jr., et al., Role of prostaglandin endoperoxide PGG2 in inflammatory processes. Nature, 1977. 265(5590): 170-3; Trancik R J, L. N., Evaluation of topical nonsteroidal anti-inflammatory agents, in Models in Dermatology, L. Maibach, Editor. 1985, Karger. pp, 35-42; and Tramposch, K. M., Skin Inflammation, in In Vivo Models of Inflammation, M. L. Morgan D W, Editor. 1999, Birkhauser Verlag. pp. 179-204.)
The standard agents for initiating inflammation were the phorbol ester, tetradecanoylphorbol acetate, (TPA) and arachidonic acid (AA). TPA produces a greater and more prolonged neutrophil infiltration response than AA (See Rao, T. S., et al., Comparative evaluation of arachidonic acid (AA)-and tetradecanoylphorbol acetate (TPA)-induced dermal inflammation. Inflammation, 1993.17(6): 72341.) TPA-induced inflammation is the preferred agent and was used for this example.
In order to assess the effects of the inventive composition on TPA-induced edema, 2 μg of TPA in 20 μl acetone was applied with the aid of a micropipetter onto both ears of each of 6 mice. The mice were returned to their cages. […]

TPA-induced MPO activity [3] = experiment: TPA-induced neutrophil infiltration, MPO assay of mouse ears; type: in vivo
Method: MPO enzyme activity of the ears was assayed using the technique detailed by Griffiths and coworkers (1988). To conduct the assay, each ear was homogenized in 1.0 ml of cetyltrimethylammonium bromide buffer for 5 sec using a Pro 200 tissue blender (Pro Scientific, Inc., Oxford, Conn.) at setting 5. These samples then were centrifuged for 5 minutes at 15,000 rpm in a 5415 Eppendorf microcentrifuge. Triplicate 20 microliter aliquots of supernatant were added to 200 microliters of reaction mixture (1.25 ml IM Potassium Phosphate, 4.175 mg o-dianisidine dihydrochloride and 5 μl of 1% peroxide in a final volume of 25 ml). Absorbance at 450 nm then was measured at room temperature at three 60 second intervals using Bio-Kinetics Reader EL 312E (Bio-Tek Instruments). Activity of the homogenate, which was determined by a Bradford assay (BioRad Protein Assay, BioRad Laboratories, Inc. Hercules, Calif.), was expressed as units MPO per mg tissue +/−standard error.
Two micrograms (2 μg) of TPA in 20 μl of acetone was applied onto both ears of each mouse to induce neutrophil infiltration. After 15 minutes, varying concentrations of AFC in acetone were applied to the right ear of each mouse. After 24 hours, the mice were sacrificed. The ears were removed and the efficacy of AFC on neutrophil infiltration was assessed by an MPO assay and histological analysis.
The effectiveness of AFC treatment at various times before and after TPA application was assessed using MPO as a measure of neutrophil infiltration. […]

[4] = tested on: TPA-induced neutrophil infiltration; experiment: TPA-induced neutrophil infiltration, neutrophil counting assay (H&E histology); type: in vivo, mouse
Method: Neutrophil-infiltration Assay: Swiss Webster male mice (n=6) were treated with 1 μg/20 μl of TPA as described above in order to assess whether or not TPA induced neutrophil infiltration Acetone was used as a control. TPA was administered as described above. The mice were returned to their cages for 24 hrs to allow neutrophil infiltration, then sacrificed by cervical dislocation. The ears were removed immediately for punch biopsy, and punches were fixed for subsequent histological analysis and MPO enzymatic assay.
Neutrophil Counting Assay: Ear punches buffered in 10% formalin in PBS at ambient temperature for a minimum of 24 hrs. were sectioned and stained with Hematoxilin & Eosin (“H&E”). The number of neutrophils, identified by their multilobular nuclei, in 6 randomly 100× magnified fields distributed along the length of the ear were counted manually The results are expressed as the average number per field for each ear.
Two micrograms (2 μg) of TPA in 20 μl of acetone was applied onto both ears of each mouse to induce neutrophil infiltration. […] After 24 hours, the mice were sacrificed.

TPA-induced erythema = TPA-induced erythema in mouse ear (photograph); type: in vivo; conditions: 1 μg/20 μl TPA; 1 mg/20 μl AFC after 1 hour; photo 23 hours later
Method: For this example, both ears of a mouse were treated with a 1 μg/20 μl dose of TPA in acetone. […] The photo was taken 23 hours later using a Nikon D70 digital camera.

human skin = experiment: SDS patch irritation on human skin with pre-applied AFC; type: in vivo; conditions: AFC 140 mM aqueous formulation pre-applied
Method: An irritant was applied to the middle of the upper back of a human subject using a 0.2 ml 20% SDS solution and a Hill-Top Chamber patch with Webril pad. […] Patches 1a and 2a were removed after 2 hours, while patches 1b and 2b were removed after 2 hours and 30 minutes. High levels of irritation were visible in patch sites 2a and 2b.

chronic irritation = experiment: Chronic irritation in mice by multiple TPA applications; type: in vivo, mouse; conditions: AFC in acetone, contemplated result
Method: The effectiveness of the inventive compositions against established chronic irritation can be assayed using a modification of the technique of Stanley P L et al., Mouse skin inflammation induced by multiple topical application 12-O-tetradeconoyphorbol-13-acetate. Skin Pharmacol. 1991, 4(4):262-71. Both ears of each mouse are treated with TPA in acetone, as above, in a series of 5 applications on the mornings of days 0, 2, 4, 7, and 9. […] Punches of the ears then are taken the afternoon of the tenth day and prepared, as above, for the edema assay and the infiltration of neutrophils. Total granulocyte infiltration then is assayed by measuring MPO activity. Macrophage infiltration is determined immunocytologically using the MOMA-2 antibody. Hydrocortisone, which is known to reduce inflammatory edema granulation infiltration and microphage infiltration, can be used as a positive control.

[5] = tested on: delayed-type hypersensitivity; experiment: DNFB delayed-type hypersensitivity mouse ear model; type: in vivo; conditions: AFC 0.5 hour before or 15 min after challenge, contemplated result
Source text: The mouse ear model, described above, can be modified to assay the effect of anti-inflammatory agents in an immune based inflammation model (See Tramposch, K. M., Skin Inflammation, in In Vivo Models of Inflammation, M. L. Morgan D W, Editor. 1999, Birkhauser Verlag. pp. 179-20 and Chapman, J. P., Z. Ruben, and G. M. Butchko, Histology of and quantitative assays for oxazolone-induced allergic contact dermatitis in mice. Am J Dermatopathol, 1986. 8(2): 130-8). In this model, a sensitizing dose of dinitrofluorobenzene (DNFB) 1-3% in acetone can be applied topically according to a modification of the method by Back et al. to the shaved bellies of mice to elicit an immune response. (See Back, O. and T. Egelrud, Topical glucocorticoids and suppression of contact sensitivity. A mouse bioassay of anti-inflammatory effects. Br J Dermatol, 1985. 112(5): 539-45 and Bailey, S. C., et al., A novel contact hypersensitivity model for rank-ordering formulated corticosteroids. Inflamm Res, 1995. 44 Suppl 2: S162-3.) Mice then are challenged on day 5 with 40 μl of 0.5-1% DNFB to each ear. […] The ears are assayed for edema or neutrophil infiltration 5 hours later. Dexamethasone is used as a positive control. Five days later, the ears are challenged topically with a dose of DNFB insufficient to produce contact irritation. Simultaneously, cell infiltration studies are initiated. […]

[6] = target: membrane-associated polyisoprenoid methyl transferase (Homo sapiens, UniProt O60725); conditions: background statement; cited from earlier work
Chain of membrane-associated polyisoprenoid methyl transferase (O60725 whole entry): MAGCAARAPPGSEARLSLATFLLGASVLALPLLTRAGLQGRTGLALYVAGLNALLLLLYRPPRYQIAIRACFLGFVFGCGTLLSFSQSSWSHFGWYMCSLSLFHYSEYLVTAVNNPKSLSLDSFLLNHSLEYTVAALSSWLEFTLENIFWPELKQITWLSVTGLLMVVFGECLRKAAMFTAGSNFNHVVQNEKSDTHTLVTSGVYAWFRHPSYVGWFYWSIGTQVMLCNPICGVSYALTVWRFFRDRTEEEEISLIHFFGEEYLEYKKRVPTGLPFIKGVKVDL

[7] = tested on: neutrophil, macrophage, and platelet responses; conditions: in vitro, background statement; cited from earlier work
mouse ear [8] = experiment: Induction of mouse ear edema by TPA (dose response for irritant); type: in vivo; conditions: of the acetone-treated ear; TPA 0.25 to 1.75 μg/20 μl in acetone, topical, 5.5 hours
Method: A dose response range for TPA, a compound known to induce edema, was determined. TPA produces an increase in edema (ear swelling) that reaches a maximum at 6 hours.
Increasing concentrations of TPA dissolved in acetone were applied with the aid of a micropipetter onto the right ear of each of the five 6-8 week old, male Swiss Webster mice used in this analysis. Ten microliters (10 μl) were spread evenly onto the inner and outer surfaces using the pipette tip. The mice then were returned to their cages. The contralateral ear was treated only with acetone. After 5.5 hours, the mice were sacrificed and 6 mm punches were taken from each ear and weighed. Edema response was expressed as a percent increase in the treated ear's weight over the untreated ear. The dose response curve, as well as an ED50 value, was determined using the Lichtfield method (Lichtfield J T W. F., A simplified method of evaluating dose-effect experiments, Journal of Pharmacology and Experimental Therapeutics, 1948, 96: 99-113).

[9] = 2 μg TPA in 20 μl acetone, AFC 15 min later, 24 hours

MPO activity in the contralateral vehicle-treated ear (systemic effect) (TPA-induced MPO activity [1]): increasing inhibition of MPO activity
Compound: C[C@@H]1C[C@H]2[C@@H]3CCC4=CC(=O)C=C[C@]4(C)[C@@]3(F)[C@@H](O)C[C@]2(C)[C@@]1(O)C(=O)CO [dexamethasone]

MPO activity in the contralateral vehicle-treated ear (systemic effect) (TPA-induced MPO activity [1]): increasing inhibition of MPO activity
Compound: COc1ccc2c(c1)c(CC(=O)O)c(C)n2C(=O)c1ccc(Cl)cc1 [indomethasone]

Compound: CC(=O)N[C@@H](CSCC=C(C)CCC=C(C)CCC=C(C)C)C(=O)O (stereo in doubt) [AFC, N-acetyl-5-trans, trans-farnesyl-L-cysteine]
edema response (ear punch biopsy weight) to AFC alone (mouse ear [2]): no effect
ED50 for TPA-induced edema inhibition (TPA-induced edema): approximately 0.44 mg/20 μl
maximum reduction in TPA-induced edema (TPA-induced edema): 80%
effect on TPA-induced MPO activity at different application times (TPA-induced MPO activity [3]; 1 μg/20 μl TPA, 1 mg/20 μl AFC at various times before and after TPA): efficacy of AFC treatment prior to, simultaneous with, or after exposure of skin to TPA
ED50 for inhibition of TPA-induced MPO activity (TPA-induced MPO activity [3]; [9]): 0.065 mg/20 μl
inhibition of TPA-induced increases in MPO activity (TPA-induced MPO activity [3]; [9]): > 80%
reduction in dermal neutrophils (counts) ([4]; 1.0 mg/20 μl AFC, TPA acute contact irritation, statistically significant, paired t-test): 80%
neutrophils in histology of AFC treated ear ([4]; TPA pretreated ears, 24 hours, FIG. 5): substantial reduction of neutrophils
TPA-induced erythema (TPA-induced erythema): An effect of the AFC inventive composition on TPA-induced erythema was observed
skin irritation at patch site 1b (human skin; 20% SDS patch removed after 2 hours and 30 minutes): mild response
skin irritation at patch site 1a (human skin; 20% SDS patch removed after 2 hours): normal skin
chronic edema and neutrophil number (chronic irritation): reduces chronic edema and neutrophil number
edema and neutrophil infiltration in DNFB challenge [5]: effective in reducing both edema and neutrophil infiltration
inhibition of polyisoprenoid methyl transferase [6]: inhibit membrane-associated polyisoprenoid methyl transferase
neutrophil, macrophage and platelet responses [7]: block some neutrophil, macrophage, and platelet responses in vitro

Compound: tetradecanoylphorbol acetate [TPA]
maximum increase in ear weight (edema) (mouse ear [8]): approximately 150%

Source: patent US20090155186A1, “Compositions and methods for treating inflammatory conditions” (SIGNUM BIOSCENCES, INC., priority 2005, published 2009)
